Reference: patent publication US10201585B2, “Methods for treatment of atherosclerosis” (Stealth Peptides International, Inc., priority 2012, dated 2019)
“And” between values parts separate entries of the source, which are not always exact repeats. Equal values may be shown once.

System: Apoprotein E deficient mice
Experiment: Plasma lipoprotein cholesterol by gel electrophoresis (Spife; HDL-C, LDL-C, VLDL-C)
Assay type: in vivo
Description: Apoprotein E deficient mice (Jackson Laboratories, 600 Main Street, Bar Harbor, Me.) were used in this study. The mice were male, 7-8 weeks of age, and between 18-20 g in weight. An initial total cholesterol measurement was made on 30 mice, and the mice were grouped into two groups of 15 to match the total cholesterol measurements. Both groups were fed a “western diet” (40 kcal % butterfat, 0.15% [wt/wt] cholesterol, Harlan Teklad diet TD-88137). Starting at t=0, the control group of 15 mice received vehicle only (phosphate buffered saline at pH 7.4), while the test group of 15 mice received aromatic-cationic peptide reconstituted in phosphate buffered saline. Body weights of the mice were recorded weekly, and mortality checks were performed daily.
The aromatic-cationic peptide D-Arg-2′6′-Dmt-Lys-Phe-NH2 (sterile lyophilized powder, reconstituted in phosphate buffered saline) was tested. For the 12-week study, test mice received a single, daily dose of the peptide, subcutaneously at 1 mg/kg. Control mice received a single daily dose of vehicle.
Blood was collected every four weeks (orbital plexis) under isoflurane anesthesia (3%) and blood lipids were determined. Plasma lipid analysis was conducted for both groups at t=0, 4, 6, 8, and 12 weeks. Plasma lipid analysis using an autoanalyzer included total cholesterol (TC), triglycerides (Trigs), phospholipids (PL), free cholesterol (FC), and cholesterol ester (CE, by calculation). Gel electrophoresis was used to measure levels of high-density lipoprotein cholesterol (HDL-C), low-density lipoprotein cholesterol (LDL-C), and very low-density lipoprotein cholesterol (VLDL-C).

[1] = Week 0 (baseline), group mean of 15 test mice, vehicle group 25
[2] = Week 0 (start of treatment, baseline), individual mouse of peptide group (sample 16-30)
[3] = Week 4, individual test mice (sample # 16-30), listed as aromatic-cationic peptide
[4] = Week 8, individual test mice (sample # 16-30), listed as aromatic-cationic peptide
[5] = Week 12, AVE of test mice 16-30
[6] = Week 12, individual test mice (sample # 16-30), listed as aromatic-cationic peptide
[7] = treated versus vehicle at 4, 8 and 12 week time points

D-Arg-2′6′-Dmt-Lys-Phe-NH2
Plasma HDL-C, AVE [1]: 28 mg/dL | Plasma VLDL-C, AVE [1]: 26 mg/dL | Plasma LDL-C, AVE (Week 0 (baseline), group mean of 15 test mice, vehicle group 362): 368 mg/dL | Plasma HDL-C [2]: 19 mg/dL and 34 mg/dL and 32 mg/dL and 37 mg/dL and 35 mg/dL and 21 mg/dL and 38 mg/dL and 41 mg/dL and 6 mg/dL and 31 mg/dL and 26 mg/dL and 39 mg/dL and 22 mg/dL and 29 mg/dL and 8 mg/dL | Plasma LDL-C [2]: 258 mg/dL and 260 mg/dL and 307 mg/dL and 245 mg/dL and 268 mg/dL and 295 mg/dL and 304 mg/dL and 474 mg/dL and 287 mg/dL and 352 mg/dL and 380 mg/dL and 481 mg/dL and 410 mg/dL and 432 mg/dL and 773 mg/dL | Plasma VLDL-C [2]: 25 mg/dL (2×) and 23 mg/dL and 37 mg/dL and 20 mg/dL (2×) and 19 mg/dL and 27 mg/dL and 36 mg/dL and 15 mg/dL and 26 mg/dL and 31 mg/dL and 24 mg/dL and 28 mg/dL and 29 mg/dL | HDL-C, Spife (electrophoresis) (Week 4, AVE of test mice 16-30): 25 mg/dL | LDL-C, Spife (electrophoresis) (Week 4, AVE of test mice 16-30): 940 mg/dL | VLDL-C, Spife (electrophoresis) (Week 4, AVE of test mice 16-30): 33 mg/dL | HDL-C, Spife (electrophoresis) [3]: 18 mg/dL and 20 mg/dL (3×) and 0 mg/dL and 13 mg/dL and 7 mg/dL and 23 mg/dL and 32 mg/dL (3×) and 15 mg/dL and 45 mg/dL and 44 mg/dL and 49 mg/dL | LDL-C, Spife (electrophoresis) [3]: 745 mg/dL and 866 mg/dL and 918 mg/dL and 1120 mg/dL and 982 mg/dL and 648 mg/dL and 893 mg/dL and 975 mg/dL and 770 mg/dL and 766 mg/dL and 966 mg/dL and 1147 mg/dL and 874 mg/dL and 1171 mg/dL and 1254 mg/dL | VLDL-C, Spife (electrophoresis) [3]: 35 mg/dL (2×) and 37 mg/dL (2×) and 19 mg/dL and 44 mg/dL (2×) and 18 mg/dL and 23 mg/dL and 39 mg/dL and 41 mg/dL and 28 mg/dL and 31 mg/dL and 30 mg/dL and 32 mg/dL | HDL-C, Spife (electrophoresis) (Week 8, AVE of test mice 16-30): 32 mg/dL | LDL-C, Spife (electrophoresis) (Week 8, AVE of test mice 16-30): 1166 mg/dL | VLDL-C, Spife (electrophoresis) (Week 8, AVE of test mice 16-30): 84 mg/dL | HDL-C, Spife (electrophoresis) [4]: 42 mg/dL and 34 mg/dL and 27 mg/dL and 33 mg/dL and 19 mg/dL (2×) and 8 mg/dL and 45 mg/dL and 16 mg/dL and 32 mg/dL and 41 mg/dL (2×) and 25 mg/dL and 43 mg/dL and 57 mg/dL | LDL-C, Spife (electrophoresis) [4]: 1119 mg/dL and 897 mg/dL and 1392 mg/dL and 1071 mg/dL and 1415 mg/dL and 901 mg/dL and 875 mg/dL and 1378 mg/dL and 922 mg/dL and 856 mg/dL and 1317 mg/dL and 1320 mg/dL and 1025 mg/dL and 1382 mg/dL and 1621 mg/dL | VLDL-C, Spife (electrophoresis) [4]: 101 mg/dL and 73 mg/dL and 86 mg/dL and 79 mg/dL (2×) and 112 mg/dL and 34 mg/dL and 88 mg/dL and 69 mg/dL and 59 mg/dL and 93 mg/dL and 74 mg/dL and 80 mg/dL and 109 mg/dL and 119 mg/dL | HDL-C, Spife (electrophoresis) [5]: 21 mg/dL | LDL-C, Spife (electrophoresis) [5]: 939 mg/dL | VLDL-C, Spife (electrophoresis) [5]: 44 mg/dL | HDL-C, Spife (electrophoresis) [6]: 38 mg/dL and 20 mg/dL (2×) and 10 mg/dL and 41 mg/dL and 21 mg/dL and 5 mg/dL and 31 mg/dL (2×) and 2 mg/dL (2×) and 40 mg/dL and 28 mg/dL and 1 mg/dL and 23 mg/dL | LDL-C, Spife (electrophoresis) [6]: 821 mg/dL and 485 mg/dL and 854 mg/dL and 852 mg/dL and 1328 mg/dL and 693 mg/dL and 611 mg/dL and 692 mg/dL and 962 mg/dL and 896 mg/dL and 1275 mg/dL and 1218 mg/dL and 505 mg/dL and 1203 mg/dL and 1688 mg/dL | VLDL-C, Spife (electrophoresis) [6]: 39 mg/dL and 35 mg/dL and 21 mg/dL (2×) and 43 mg/dL and 71 mg/dL and 32 mg/dL and 33 mg/dL and 26 mg/dL and 63 mg/dL and 76 mg/dL and 36 mg/dL and 30 mg/dL and 83 mg/dL and 46 mg/dL | Plasma LDL-C, in words [7]: reduces | Plasma VLDL-C, in words [7]: reduces
